Results reported in US12570687B2, “Triterpenoid compounds, pharmaceutical compositions thereof, and their use for treating a nuclear receptor subfamily 4 group a member 1-mediated disease” (NUCMITO PHARMACEUTICALS COMPANY LIMITED, priority 2019, dated 2026).

How the values were obtained:
Format in all cases: cell-based
[1] = tested on: MDA-MB-231 (breast cancer); assay: MTT antiproliferative assay, MDA-MB-231; details: Homo sapiens, MDA-MB-231, 10 μM, 48 or 72 h, read-out: inhibition of cell growth, MDA-MB-231
Outline: (§1)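 2,000-5,000 cells/well; cpd 0.137–100 μM or 10 μM single dose; 37° C, 48 or 72 h; MTT 4 h; DMSO dissolve; A490; % viability vs DMSO vehicle. Activity banded by % growth inhibition at 10 μM.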

[2] = tested on: HeLa (ovarian cancer); assay: MTT antiproliferative assay, HeLa; details: Homo sapiens, 48 or 72 h, read-out: inhibition of cell growth, HELA
Outline: as §1

[3] = tested on: SW620 (colon cancer); assay: MTT antiproliferative assay, SW620; details: Homo sapiens, SW-620, SW620, 10 μM, 48 or 72 h, read-out: inhibition of cell growth, SW620
Outline: as §1

[4] = tested on: A549 (lung adenocarcinoma); assay: MTT antiproliferative assay, A549; details: Homo sapiens, A549, 10 μM, 48 or 72 h, read-out: inhibition of cell growth, A549
Outline: as §1

[5] = tested on: A431 (epidermoid carcinoma); assay: MTT antiproliferative assay, A431; details: Homo sapiens, A-431, A431, 10 μM, 48 or 72 h, read-out: inhibition of cell growth, A431
Outline: as §1

[6] = tested on: A375 (malignant melanoma); assay: MTT antiproliferative assay, A375; details: Homo sapiens, A-375, A375, 10 μM, 48 or 72 h, read-out: inhibition of cell growth, A375
Outline: as §1

[7] = tested on: HepG2 (liver cancer); assay: MTT antiproliferative assay, HepG2; details: Homo sapiens, HepG2, 10 μM, 48 or 72 h, read-out: inhibition of cell growth, HepG2
Outline: as §1

Work on `CO[C@@]1(C)C2=CC=C3[C@@](C)(CC[C@@]4(C)[C@@H]5C[C@](C)(C(=O)O)CC[C@]5(C)CC[C@]34C)C2=CC2(O)OCCN=C21` (stereo partly drawn) [Compound A46, (2R,4aS,6aS,9S,14bR,16aS,16bR)-13a-hydroxy-9-methoxy-2,4a,6a,9,14b,16a-hexamethyl-2,3,4,4a,5,6,6a,9,11,12,13a,14b,15,16,16a,16b-hexadecahydro-1H-piceno[2,3-b][1,4]oxazine-2-carboxylic acid] yielded an inhibition at 10 µM [1] of 50 to 80%, an inhibition at 10 µM [2] of no less than 80% and an inhibition at 10 µM [3] of 50 to 80%. The inhibition at 10 µM [4] was 50 to 80%, the inhibition at 10 µM [5] was no less than 80% and the inhibition at 10 µM [6] was 30 to 50%. It also gave an inhibition at 10 µM [7] of no less than 80%.
With `COC(=O)[C@]1(C)CC[C@]2(C)CC[C@]3(C)C4=CC=C5C(=CC(=O)/C(=C/C#N)C5(C)O)[C@]4(C)CC[C@@]3(C)[C@@H]2C1` (stereo partly drawn) [Compound A34, methyl (2R,4aS,6aS,10E,12bR,14aS,14bR)-10-(cyanomethylidene)-9-hydroxy-2,4a,6a,9,12b,14a-hexamethyl-11-oxo-1,2,3,4,4a,5,6,6a,9,10,11,12b,13,14,14a,14b-hexadecahydropicene-2-carboxylate] the inhibition at 10 µM [1] was no less than 80%, the inhibition at 10 µM [2] was no less than 80% and the inhibition at 10 µM [3] was no less than 80%. For the same molecule, the inhibition at 10 µM [4] was 50 to 80%, the inhibition at 10 µM [5] was 50 to 80% and the inhibition at 10 µM [6] was 50 to 80%. For the same molecule, the inhibition at 10 µM [7] was no less than 80%.
With `COC(=O)[C@]1(C)CC[C@]2(C)CC[C@]3(C)C4=CC=C5C(=CC(=O)C(=O)C5(C)c5c[nH]c6ccccc56)[C@]4(C)CC[C@@]3(C)[C@@H]2C1` (stereo partly drawn) [Compound A4, methyl (2R,4aS,6aS,12bR,14aS,14bR)-9-(1H-indol-3-yl)-2,4a,6a,9,12b,14a-hexamethyl-10,11-dioxo-1,2,3,4,4a,5,6,6a,9,10,11,12b,13,14,14a,14b-hexadecahydropicene-2-carboxylate] the inhibition at 10 µM [1] was 30 to 50%, the inhibition at 10 µM [2] was no less than 80% and the inhibition at 10 µM [3] was 50 to 80%. It also gave an inhibition at 10 µM [4] of 50 to 80%, an inhibition at 10 µM [5] of no less than 80% and an inhibition at 10 µM [6] of 50 to 80%. It also gave an inhibition at 10 µM [7] of 50 to 80%.
`CO[C@]1(C)C(=O)C(=O)C=C2C1=CC=C1[C@@]2(C)CC[C@@]2(C)[C@@H]3C[C@](C)(C(=O)OCc4ccccc4)CC[C@]3(C)CC[C@]12C` [Compound A11, benzyl (2R,4aS,6aS,9S,12bR,14aS,14bR)-9-methoxy-2,4a,6a,9,12b,14a-hexamethyl-10,11-dioxo-1,2,3,4,4a,5,6,6a,9,10,11,12b,13,14,14a,14b-hexadecahydropicene-2-carboxylate] was tested, and the inhibition at 10 µM [1] was no less than 80%, the inhibition at 10 µM [2] was no less than 80% and the inhibition at 10 µM [3] was no less than 80%. It also gave an inhibition at 10 µM [4] of less than 30%, an inhibition at 10 µM [5] of less than 30% and an inhibition at 10 µM [6] of 50 to 80%. The inhibition at 10 µM [7] was no less than 80%.
With `CC12OCCOC1(O)C(=O)C=C1C2=CC=C2[C@@]1(C)CC[C@@]1(C)[C@@H]3C[C@](C)(C(=O)O)CC[C@]3(C)CC[C@]21C` (stereo partly drawn) [Compound A43, (6bS,8aS,11R,12aR,12bS,14aR)-16a-hydroxy-4a,6b,8a,11,12b,14a-hexamethyl-16-oxo-2,3,4a,6b,7,8,8a,9,10,11,12,12a,12b,13,14,14a,16,16a-octadecahydropiceno[3,4-b][1,4]dioxine-11-carboxylic acid] the inhibition at 10 µM [1] was less than 30%, the inhibition at 10 µM [2] was less than 30% and the inhibition at 10 µM [3] was less than 30%. For the same molecule, the inhibition at 10 µM [4] was less than 30%, the inhibition at 10 µM [5] was less than 30% and the inhibition at 10 µM [6] was less than 30%. For the same molecule, the inhibition at 10 µM [7] was less than 30%.
`CO[C@@]1(C)C2=CC=C3[C@@](C)(CC[C@@]4(C)[C@@H]5C[C@](C)(C(=O)O)CC[C@]5(C)CC[C@]34C)C2=CC(=O)C1=NNC(C)=O` [Compound A51, (2R,4aS,6aS,9S,12bR,14aS,14bR)-10-(acetamidoimino)-9-methoxy-2,4a,6a,9,12b,14a-hexamethyl-11-oxo-1,2,3,4,4a,5,6,6a,9,10,11,12b,13,14,14a,14b-hexadecahydropicene-2-carboxylic acid] showed an inhibition at 10 µM [1] of less than 30%, an inhibition at 10 µM [2] of less than 30% and an inhibition at 10 µM [3] of less than 30%. It also gave an inhibition at 10 µM [4] of less than 30%, an inhibition at 10 µM [5] of less than 30% and an inhibition at 10 µM [6] of less than 30%. The inhibition at 10 µM [7] was less than 30%.
`CC(=O)OC1(C)C(=O)C(=O)C=C2C1=CC=C1[C@@]2(C)CC[C@@]2(C)[C@@H]3C[C@](C)(C(=O)O)CC[C@]3(C)CC[C@]12C` (stereo partly drawn) [Compound A3, (2R,4aS,6aS,12bR,14aS,14bR)-9-(acetyloxy)-2,4a,6a,9,12b,14a-hexamethyl-10,11-dioxo-1,2,3,4,4a,5,6,6a,9,10,11,12b,13,14,14a,14b-hexadecahydropicene-2-carboxylic acid] was tested, and the inhibition at 10 µM [1] was less than 30%, the inhibition at 10 µM [2] was 50 to 80% and the inhibition at 10 µM [3] was less than 30%. It also gave an inhibition at 10 µM [4] of 50 to 80%, an inhibition at 10 µM [5] of no less than 80% and an inhibition at 10 µM [6] of less than 30%. The inhibition at 10 µM [7] was less than 30%.
With `COC(=O)[C@]1(C)CC[C@]2(C)CC[C@]3(C)C4=CC=C5C(=CC(=O)[C@H](O)[C@@]5(C)OC)[C@]4(C)CC[C@@]3(C)[C@@H]2C1` [Compound A20, methyl (2R,4aS,6aS,9S,10R,12bR,14aS,14bR)-10-hydroxy-9-methoxy-2,4a,6a,9,12b,14a-hexamethyl-11-oxo-1,2,3,4,4a,5,6,6a,9,10,11,12b,13,14,14a,14b-hexadecahydropicene-2-carboxylate] the inhibition at 10 µM [1] was no less than 80%, the inhibition at 10 µM [2] was no less than 80% and the inhibition at 10 µM [3] was no less than 80%. It also gave an inhibition at 10 µM [4] of no less than 80%, an inhibition at 10 µM [5] of no less than 80% and an inhibition at 10 µM [6] of 50 to 80%. The inhibition at 10 µM [7] was no less than 80%.
`CO[C@@]1(C)C2=CC=C3[C@@](C)(CC[C@@]4(C)[C@@H]5C[C@](C)(C(=O)O)CC[C@]5(C)CC[C@]34C)C2=CC(=O)/C1=C\C#N` [Compound A30, (2R,4aS,6aS,9S,10Z,12bR,14aS,14bR)-10-(cyanomethylidene)-9-methoxy-2,4a,6a,9,12b,14a-hexamethyl-11-oxo-1,2,3,4,4a,5,6,6a,9,10,11,12b,13,14,14a,14b-hexadecahydropicene-2-carboxylic acid] was tested, and the inhibition at 10 µM [1] was no less than 80%, the inhibition at 10 µM [2] was no less than 80% and the inhibition at 10 µM [3] was no less than 80%. It also gave an inhibition at 10 µM [4] of 30 to 50%, an inhibition at 10 µM [5] of no less than 80% and an inhibition at 10 µM [6] of 50 to 80%. For the same molecule, the inhibition at 10 µM [7] was no less than 80%.
In the case of `CO[C@@]1(C)C2=CC=C3[C@@](C)(CC[C@@]4(C)[C@@H]5C[C@](C)(CO)CC[C@]5(C)CC[C@]34C)C2=CC(=O)[C@@H]1O` [Compound A18, (3R,4S,6bS,8aS,11R,12aR,12bS,14aR)-3-hydroxy-11-(hydroxymethyl)-4-methoxy-4,6b,8a,11,12b,14a-hexamethyl-2,3,4,6b,7,8,8a,9,10,11,12,12a,12b,13,14,14a-hexadecahydropicen-2-one], the inhibition at 10 µM [1] is reported as no less than 80%, the inhibition at 10 µM [2] is reported as no less than 80% and the inhibition at 10 µM [3] is reported as no less than 80%. For the same molecule, the inhibition at 10 µM [4] was 30 to 50%, the inhibition at 10 µM [5] was no less than 80% and the inhibition at 10 µM [6] was 50 to 80%. It also gave an inhibition at 10 µM [7] of no less than 80%.
In the case of `CO[C@@]1(C)C2=CC=C3[C@@](C)(CC[C@@]4(C)[C@@H]5C[C@](C)(C(=O)NO)CC[C@]5(C)CC[C@]34C)C2=CC2(O)OCCN=C21` (stereo partly drawn) [Compound A47, (2R,4aS,6aS,9S,14bR,16aS,16bR)—N,13a-dihydroxy-9-methoxy-2,4a,6a,9,14b,16a-hexamethyl-2,3,4,4a,5,6,6a,9,11,12,13a,14b,15,16,16a,16b-hexadecahydro-1H-piceno[2,3-b][1,4]oxazine-2-carboxamide], the inhibition at 10 µM [1] is reported as no less than 80%, the inhibition at 10 µM [2] is reported as no less than 80% and the inhibition at 10 µM [3] is reported as 50 to 80%. It also gave an inhibition at 10 µM [4] of no less than 80%, an inhibition at 10 µM [5] of no less than 80% and an inhibition at 10 µM [6] of 30 to 50%. It also gave an inhibition at 10 µM [7] of no less than 80%.
Molecule `COC(=O)[C@]1(C)CC[C@]2(C)CC[C@]3(C)C4=CC=C5C(=CC(=O)C(=O)C5(C)O)[C@]4(C)CC[C@@]3(C)[C@@H]2C1` (stereo partly drawn) [Compound A32, methyl (2R,4aS,6aS,12bR,14aS,14bR)-9-hydroxy-2,4a,6a,9,12b,14a-hexamethyl-10,11-dioxo-1,2,3,4,4a,5,6,6a,9,10,11,12b,13,14,14a,14b-hexadecahydropicene-2-carboxylate] has an inhibition at 10 µM [1] of no less than 80%, an inhibition at 10 µM [2] of no less than 80% and an inhibition at 10 µM [3] of no less than 80%. The inhibition at 10 µM [4] was no less than 80%, the inhibition at 10 µM [5] was no less than 80% and the inhibition at 10 µM [6] was 50 to 80%. The inhibition at 10 µM [7] was no less than 80%.
